# According to PMC4549712, “Inhibition of human GLUT1 and GLUT5 by plant carbohydrate products; insights into transport specificity” (Scientific Reports, 2015):
# Changes are numbered by the printed parent chain. Values joined by “and” are separate entries in the source; they are usually repeats but may differ in a detail not shown here. Identical values can stand only once.
# Key:
# [1] = biological target: T1, human GLUT5 (Homo sapiens, UniProt P22732); assay: entrance counter-flow transport assay, GLUT5-mediated fructose transport in proteoliposomes; assay type: biochemical
# T1 construct: Full length DNA was subcloned into pFastBac1 (Life Technologies) vector with a N-terminal hexahistidine tag; hexahistidine (thrombin-cleavable) (N, cleaved yes); made in house; host or cells: Sf21 insect cells (baculovirus, pFastBac1)
# T1 sequence (P22732 1-501): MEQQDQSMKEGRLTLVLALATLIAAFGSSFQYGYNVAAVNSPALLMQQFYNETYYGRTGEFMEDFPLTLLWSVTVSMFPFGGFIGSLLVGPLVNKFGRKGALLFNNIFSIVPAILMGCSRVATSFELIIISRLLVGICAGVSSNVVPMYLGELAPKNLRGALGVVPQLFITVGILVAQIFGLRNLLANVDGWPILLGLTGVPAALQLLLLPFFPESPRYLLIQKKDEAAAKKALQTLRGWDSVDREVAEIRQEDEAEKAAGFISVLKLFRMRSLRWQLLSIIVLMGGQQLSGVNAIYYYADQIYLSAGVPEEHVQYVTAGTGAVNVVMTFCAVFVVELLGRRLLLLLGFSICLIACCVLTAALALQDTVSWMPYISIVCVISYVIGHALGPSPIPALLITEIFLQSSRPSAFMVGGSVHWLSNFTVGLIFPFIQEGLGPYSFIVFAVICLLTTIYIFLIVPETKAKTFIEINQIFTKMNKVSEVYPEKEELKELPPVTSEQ
# Description: Human GLUT1 and GLUT5 were expressed recombinantly in insect cell culture. The purified proteins were reconstituted into proteoliposomes. To measure the inhibition of GLUT1 or GLUT5 transport activity we used entrance counter-flow transport assay.
# Proteoliposomes were generated according to the protocol from[30] with minor modifications. Liposomes were produced from a 95/5% (w/w) mix of soy phosphatidylcholine and cholesterol (Avanti Polar Lipids). Briefly, hexane-washed and vacuum-dried lipids were resuspended to 20 mg/ml in 100 mM KPi (pH 7.5), and then subjected to 11 freeze-and-thaw cycles in liquid nitrogen and room temperature water. The lipid mixture was extruded through a 0.1 μm polycarbonate filter. Prepared liposomes were destabilized with 4 mM Triton X-100 and mixed with purified protein in a 100:1 (w/w) ratio in 100 mM KPi (pH 7.5) 20% (v/v) glycerol, 200 mM (glucose or fructose). Detergent was removed by several additions of SM2 BioBeads (BioRad) and incubated overnight at 4 °C. After filtering out the BioBeads, proteoliposomes were diluted with 100 mM KPi (pH 7.5) 200 mM (glucose or fructose), and then collected by ultracentrifugation, at 200,000 × g and 4 °C, for 1 hour. The proteoliposomes pellet was resuspended in the above buffer so that O.D.600nm was ~30.
# To measure hexose transport, we utilized entrance counter-flow assay. Transport was performed in a volume of 100 μL of 100 mM KPi (pH 7.5) buffer containing radioactive ^14C-hexose (4 μM fructose or 5 μM glucose) with inhibitors added before initiation of transport. […] The reaction was started by the addition of 3 μL concentrated proteoliposomes to the above solution and incubated at room temperature; the transport was stopped after one minute by addition of ice-chilled quench buffer [100 mM KPi (pH 5.5) and 100 mM LiCl]. The solution was filtered through a 0.4 μm pore size cellulose nitrate membrane filter (Whatman), and the filter was washed three times with quench buffer. The membrane filter was placed into a vial filled with BioSafe II scintillation liquid (Research Products International Corp.), and radioactivity was quantified with LS 6500 scintillation counter (Beckman). […] Data is presented as relative activity normalized to radioactivity of no inhibitor added as 100% and empty proteoliposomes as 0%. Kinetic parameters were fitted by nonlinear algorithm plots using Prism (GraphPad Software).
# [2] = biological target: T2, GLUT5A396W (Homo sapiens, UniProt P22732, A396W); assay: entrance counter-flow transport assay, fructose transport by GLUT5A396W proteoliposomes; assay type: biochemical
# T2 construct: Full length DNA was subcloned into pFastBac1 (Life Technologies) vector with a N-terminal hexahistidine tag; hexahistidine (thrombin-cleavable) (N, cleaved yes); made in house; host or cells: Sf21 insect cells (baculovirus, pFastBac1)
# T2 sequence (P22732 1-501 A396W): T1 sequence (P22732 1-501) with A396W
# Description: We expressed and purified GLUT1W388A and GLUT5A396W. Purified mutant proteins were reconstituted into proteoliposomes and activity was determined by entrance counter-flow transport assay.
# cDNAs of GLUT1 and GLUT5 were purchased from Open Biosystems (GE Healthcare). Full length DNA was subcloned into pFastBac1 (Life Technologies) vector with a N-terminal hexahistidine tag. Bacmids were generated in DH10Bac E. coli cells (Life Technologies). Baculoviruses were produced using Cellfectin II Reagent and amplified in Sf21 insect cells (Life Technologies). Cells were maintained at 26 °C, and P1 (10^6 pfu/mL) was collected from infected cells after 72 hours. Sf21 cells were propagated in HyClone SFX-Insect media (GE Healthcare), supplemented with 5% fetal bovine serum (Biowest), antibiotics (100 units/mL Penicillin G and 100 μg/mL streptomycin sulfate) and amphotericin B (2.5 μg/mL). For recombinant protein expression, Sf21 cells in suspension culture at 2 × 10^6 cells/ml were infected with P3 viral stock (10^8 pfu/mL), at an MOI of 1.0 pfu/cell. Four days after viral infection, cells from 2 L culture were collected by centrifugation at 2,000 × g and 25 °C. […]
smiles,measurement,setting,value
"C=C1C[C@@]23CC[C@H]4[C@@](C)(CCC[C@@]4(C)C(=O)O[C@@H]4O[C@H](CO)[C@@H](O)[C@H](O)[C@H]4O)[C@@H]2CC[C@]1(O[C@@H]1O[C@H](CO)[C@@H](O)[C@H](O)[C@H]1O)C3 [Rub, Rubusoside]",inhibition of GLUT5 fructose transport activity,[1]; added at 20 mM,reducing activity to background levels
same,IC50,[1]; entrance counter-flow,6.7 mM and ~5 mM and 5 mM
same,IC50,[2],10.3 mM and 10 mM
